In brackets after ≈: the same amount, converted by molar mass. Where two headings read alike, the source gives them in different places.
What was measured:
[1] = system: gram-positive bacteria; experiment: Antibacterial activities against gram-positive bacteria (summary of Table 1); format: cell-based; settings: in words
Method: (§1) Antibacterial activities of the compounds of formula (I) are shown in Table 1 in terms of minimum inhibitory concentration (MIC).
(§2) Minimum inhibitory concentration was determined by the agar plate dilution method. Test strains were subjected to seed culture using Sensitivity test broth (STB, Nissui Pharmaceutical) except that the strains belonging to the genus Streptococcus, Branhamella and Haemophilus were cultured on blood agar plate. A 5 μl portion of cell suspension of the test strains having about 10^6 CFU/ml was inoculated into Sensitivity disk agar (SDA, Nissui Pharmaceutical) supplemented with 5% horse blood and incubated at 37° C. for 20 hours. Then, MIC was measured.

[2] = system: M. luteus; format: in vitro ADME
Method: Changes in the antibacterial activities of miokamycin (MOM) and the compound (13) were measured in the following manner.
Each test compound and 50 μl of a methanol solution (10,000 γ) were added to 950 μl of thawed rat plasma and the resulting mixture was incubated at 37° C. A 20 μl portion of the mixture was sampled after 0, 1, 3, 6 and 24 hours and added to 980 μl of 0.05M phosphate buffer (pH 7.2). A 20 μl portion of the sample solution was used to measure antibacterial activity against M. luteus. Separately, the calibration curve was prepared by using a methanol solution containing each test compound. The starting activity of each compound in the plasma was referred to as 100%.

[3] = system: S. pneumoniae Type 1; experiment: Antibacterial activity (MIC), agar plate dilution method; format: cell-based; settings: Streptococcus pneumoniae, TYPE1, 37° C., 20 hours, blood agar seed culture
Method: as §1, §2

[4] = system: K. pneumoniae PC1602; experiment: as above; format: cell-based; settings: Klebsiella pneumoniae, 37° C., 20 hours
Method: as §1, §2

[5] = system: B. catarrhalis W-0500; experiment: as above; format: cell-based; settings: Moraxella catarrhalis, read-out: Antibacterial activity (MIC)
Method: as §1, §2

[6] = system: Sta. aureus MS15009/pMS98; experiment: as above; format: cell-based; settings: Staphylococcus aureus, MS15009/PMS98, 20 h, read-out: Antibacterial activity (MIC)
Method: as §1, §2

[7] = system: Sta. aureus M126; experiment: as above; format: cell-based; settings: Staphylococcus aureus, 37° C., 20 hours
Method: as §1, §2

[8] = system: B. catarrhalis W-0506; experiment: as above; format: cell-based; settings: Moraxella catarrhalis, read-out: Antibacterial activity (MIC)
Method: as §1, §2

[9] = system: S. Pyogenes Cook; experiment: as above; format: cell-based; settings: Streptococcus pyogenes, 37° C., 20 hours, blood agar seed culture
Method: as §1, §2

[10] = system: S. pneumoniae IP692; experiment: as above; format: cell-based; settings: Streptococcus pneumoniae, 37° C., 20 hours, blood agar seed culture
Method: as §1, §2

[11] = system: Sta. aureus 209P JC-1; experiment: as above; format: cell-based; settings: Staphylococcus aureus, 37° C., 20 hours
Method: as §1, §2

[12] = system: Sta. aureus MS15027; experiment: as above; format: cell-based; settings: Staphylococcus aureus, read-out: Antibacterial activity (MIC)
Method: as §1, §2

[13] = system: M. luteus ATCC 9341; experiment: as above; format: cell-based; settings: Micrococcus luteus, ATCC9341, 37° C., 20 hours
Method: as §1, §2

[14] = system: E. coli NIHJ JC-2; experiment: as above; format: cell-based; settings: Escherichia coli, NIHJJC2, 37° C., 20 hours
Method: as §1, §2

[15] = system: Ent. faecalis W-73; experiment: as above; format: cell-based; settings: Enterococcus faecalis, W73, 37° C., 20 hours
Method: as §1, §2

[16] = system: Sta. aureus MS15026; experiment: as above; format: cell-based; settings: Staphylococcus aureus, 37° C., 20 hours
Method: as §1, §2

[17] = system: Sta. aureus M133; experiment: as above; format: cell-based; settings: Staphylococcus aureus, read-out: Antibacterial activity (MIC)
Method: as §1, §2

[18] = system: Sta. aureus MS15009/pMS99; experiment: as above; format: cell-based; settings: Staphylococcus aureus, MS15009/PMS99, 20 h, read-out: Antibacterial activity (MIC)
Method: as §1, §2

[19] = system: Sta. epidermidis ATCC 14990; experiment: as above; format: cell-based; settings: Staphylococcus epidermidis, ATCC14990; 37° C., 20 hours; Sta. epidermidis ATCC 14990; read-out: Antibacterial activity (MIC)
Method: as §1, §2

[20] = system: H. influenza 9334; experiment: as above; format: cell-based; settings: 37° C., 20 hours, blood agar seed culture
Method: as §1, §2

[21] = W0500, 37° C., 20 hours, blood agar seed culture, B. catarrhalis W-0500
[22] = 37° C., 20 hours, Sta. aureus M133
[23] = W0506, 37° C., 20 hours, blood agar seed culture, B. catarrhalis W-0506

Row | SMILES | MIC [3] | MIC [4] | MIC [5, 21] | MIC [6] | MIC [7] | MIC [9] | MIC [10] | MIC [11] | MIC ([12]; MS15027, 20 h) | MIC [13] | MIC [14] | MIC [15] | MIC [16] | MIC [17, 22] | MIC [18] | MIC [19] | MIC [20] | MIC [8, 23] | further results
1 | CCO[C@H]1[C@H](C)O[C@@H](O[C@H]2[C@H](N(C)C)[C@@H](O)[C@H](O[C@H]3[C@@H](CC=O)C[C@@H](C)C(=O)/C=C/C=C/C[C@@H](C)OC(=O)C[C@@H](OC(=O)CC)[C@@H]3OC)O[C@@H]2C)C[C@@]1(C)OC [Compound (13)] | 1.56 µg/mL (≈ 1.95 µM) | > 100 µg/mL | 3.13 µg/mL (≈ 3.92 µM) | 6.25 µg/mL (≈ 7.83 µM) | > 100 µg/mL | 0.78 µg/mL (≈ 0.977 µM) | 1.56 µg/mL (≈ 1.95 µM) | 3.13 µg/mL (≈ 3.92 µM) | 6.25 µg/mL (≈ 7.83 µM) | 0.78 µg/mL (≈ 0.977 µM) | > 100 µg/mL | 3.13 µg/mL (≈ 3.92 µM) | > 100 µg/mL | 3.13 µg/mL (≈ 3.92 µM) | > 100 µg/mL | 12.5 µg/mL (≈ 15.7 µM) | 100 µg/mL (≈ 125 µM) | – | antibacterial activities against gram-positive bacteria [1]: have antibacterial activities against gram-positive bacteria; antibacterial activity in rat plasma over time [2]: antibacterial activity sustaining for a prolonged period of time in rat plasma; degree of the decrease in the antibacterial activity in plasma [2]: clearly lower degree of the decrease in the antibacterial activity in plasma, compared with miokamycin; metabolism at the mycarose moiety in plasma [2]: hardly metabolized at the mycarose moiety; MIC ([8]; W0506, 20 h): 6.25 µg/mL (≈ 7.83 µM)
2 | C=CCO[C@H]1[C@H](C)O[C@@H](O[C@H]2[C@H](N(C)C)[C@@H](O)[C@H](O[C@H]3[C@@H](CC=O)C[C@@H](C)C(=O)/C=C/C=C/C[C@@H](C)OC(=O)C[C@@H](OC(=O)CC)[C@@H]3OC)O[C@@H]2C)C[C@@]1(C)OC [Compound (39)] | 1.56 µg/mL (≈ 1.93 µM) | > 100 µg/mL | – | 12.5 µg/mL (≈ 15.4 µM) | > 100 µg/mL | 1.56 µg/mL (≈ 1.93 µM) | 1.56 µg/mL (≈ 1.93 µM) | 3.13 µg/mL (≈ 3.86 µM) | 12.5 µg/mL (≈ 15.4 µM) | 0.39 µg/mL (≈ 0.481 µM) | > 100 µg/mL | 6.25 µg/mL (≈ 7.72 µM) | > 100 µg/mL | – | > 100 µg/mL | 25 µg/mL (≈ 30.9 µM) | – | 6.25 µg/mL (≈ 7.72 µM) | MIC ([5]; W0500, 20 h): 12.5 µg/mL (≈ 15.4 µM); MIC ([17]; M133, 20 h): 12.5 µg/mL (≈ 15.4 µM)
3 | CCC(=O)O[C@@H]1CC(=O)O[C@H](C)C/C=C/C=C/C(=O)[C@H](C)C[C@H](CC=O)[C@H](O[C@@H]2O[C@H](C)[C@@H](O[C@H]3C[C@@](C)(OC)[C@@H](OCC=C(C)C)[C@H](C)O3)[C@H](N(C)C)[C@H]2O)[C@H]1OC [Compound (40)] | 0.39 µg/mL (≈ 0.465 µM) | > 100 µg/mL | 1.56 µg/mL (≈ 1.86 µM) | 0.78 µg/mL (≈ 0.931 µM) | > 100 µg/mL | 0.2 µg/mL (≈ 0.239 µM) | 0.39 µg/mL (≈ 0.465 µM) | 0.78 µg/mL (≈ 0.931 µM) | – | 0.1 µg/mL (≈ 0.119 µM) | > 100 µg/mL | 3.13 µg/mL (≈ 3.73 µM) | > 100 µg/mL | 1.56 µg/mL (≈ 1.86 µM) | > 100 µg/mL | 3.13 µg/mL (≈ 3.73 µM) | 12.5 µg/mL (≈ 14.9 µM) | 1.56 µg/mL (≈ 1.86 µM) | MIC ([12]; 37° C., 20 hours, Sta. aureus MS15027): 1.56 µg/mL (≈ 1.86 µM)
